Data published in patent publication US7723523B2, “Tetrahydropyridothiophenes” (4SC AG, priority 2004, dated 2010).

Key:
[1] = system: RKO colon adenocarcinoma cells (RKOp27) arrested by expression of ectopic p27Kip1; assay: Alamar Blue cell viability assay on RKOp27 cells arrested by Ponasterone A-induced p27Kip1 (cell cycle specific mode of action); assay type: cell-based; settings: Homo sapiens, RKOp27, 72 h, cells arrested by p27Kip1 induced with 10 μM Ponasterone A, 72 hours incubation, read-out: IC50 RKO p27 arrested
Method in brief: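 Viability measured by Alamar Blue fluorescence (ex 544, em 590 nm) after 72 h, 37 °C compound exposure in quadruplicate, normalized to untreated cells as 100%. Cells were p27Kip1-arrested RKOp27, induced with 10 μM Ponasterone A at seeding; compound added 24 h later.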

[2] = system: RKO (RKOp27) human colon adenocarcinoma cells; assay: Alamar Blue cell viability assay, anti-proliferative/cytotoxic activity on proliferating RKOp27 cells; assay type: cell-based; settings: absence of Ponasterone A, 72 hours incubation, read-out: IC50 RKO p27 proliferating
Method in brief: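 IC50 values come from concentration-effect curves of Alamar Blue fluorescence (544/590 nm), relative to untreated controls set at 100%. Cells were RKOp27, seeded at 4000/well in DMEM with 10% FCS and exposed from 24 h post-seeding for 72 h (37 °C, 5% CO2) to semi-log dilutions, each run in quadruplicate.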

| Structure (SMILES) | IC50 [1] [µM] | IC50 [2] [µM] |
| --- | --- | --- |
| N#Cc1c(NC(=O)/C=C/c2cccnc2)sc2c1CCN(C(=O)Oc1ccccn1)C2 [Example 154, 3-Cyano-2-((E)-3-pyridin-3-yl-allanoylamino)-4,7-dihydro-5H-thieno[2,3-c]pyridine-6-carboxylic acid pyridin-2-yl ester] | ≥ 100 | ≤ 2 |
| N#Cc1c(NC(=O)/C=C/c2cccnc2)sc2c1CCN(C(=O)OCCN1CCOCC1)C2 [Example 156, 3-Cyano-2-((E)-3-pyridin-3-yl-allanoylamino) 4,7-dihydro-5H-thieno[2,3-c]pyridine-6-carboxylic acid 2-morpholin-4-yl-ethyl ester] | ≥ 100 | ≤ 2 |
| N#Cc1c(NC(=O)/C=C/c2cccnc2)sc2c1CCN(C(=O)OCCCc1cccnc1)C2 [Example 157, 3-Cyano-2-((E)-3-pyridin-3-yl-allanoylamino)-4,7-dihydro-5H-thieno[2,3-c]pyridine-6-carboxylic acid 3-pyridin-3-yl-propyl ester] | ≥ 50 | ≤ 0.5 |
| N#Cc1c(NC(=O)/C=C/c2cccnc2)sc2c1CCN(C(=O)OCCc1ccccn1)C2 [Example 158, 3-Cyano-2-((E)-3-pyridin-3-yl-allanoylamino)-4,7-dihydro-5H-thieno[2,3-c]pyridine-6-carboxylic acid 2-pyridin-2-ylethyl ester] | ≥ 100 | ≤ 2 |
| N#Cc1c(NC(=O)/C=C/c2cccnc2)sc2c1CCN(C(=O)OCCc1cccnc1)C2 [Example 159, 3-Cyano-2-((E)-3-pyridin-3-yl-allanoylamino)-4,7-dihydro-5H-thieno[2,3-c]pyridine-6-carboxylic acid 2-pyridin-3-yl-ethyl ester] | ≥ 100 | ≤ 2 |
| N#Cc1c(NC(=O)/C=C/c2cccnc2)sc2c1CCN(C(=O)OCc1ccncc1)C2 [Example 160, 3-Cyano-2-((E)-3-pyridin-3-yl-allanoylamino)-4,7-dihydro-5H-thieno[2,3-c]pyridin-6-carboxylic acid pyridin-4-ylmethyl ester] | ≥ 100 | ≤ 2 |
| CCOC(=O)COC(=O)N1CCc2c(sc(NC(=O)/C=C/c3cccnc3)c2C#N)C1 [Example 161, 3-Cyano-2-((E)-3-pyridin-3-yl-allanoylamino)-4,7-dihydro-5H-thieno[2,3-c]pyridine-6-carboxylic acid ethoxycarbonylmethyl ester] | ≥ 100 | ≤ 2 |
| COC(=O)CCOC(=O)N1CCc2c(sc(NC(=O)/C=C/c3cccnc3)c2C#N)C1 [Example 162, 3-Cyano-2-((E)-3-pyridin-3-yl-allanoylamino)-4,7-dihydro-5H-thieno[2,3-c]pyridine-6-carboxylic acid 2-methoxycarbonyl-ethyl ester] | ≥ 100 | ≤ 2 |
| CC1(C)OCC(COC(=O)N2CCc3c(sc(NC(=O)/C=C/c4cccnc4)c3C#N)C2)O1 (centres unmarked) [Example 164, 3-Cyano-2-((E)-3-pyridin-3-yl-allanoylamino)-4,7-dihydro-5H-thieno[2,3-c]pyridine-6-carboxylic acid 2,2-dimethyl-[1,3]dioxolan-4-ylmethyl ester] | ≥ 100 | ≤ 2 |
| N#Cc1c(NC(=O)/C=C/c2cccnc2)sc2c1CCN(C(=O)OCCOCc1ccccc1)C2 [Example 166, 3-Cyano-2-((E)-3-pyridin-3-yl-allanoylamino)-4,7-dihydro-5H-thieno[2,3-c]pyridine-6-carboxylic acid 2-benzyloxy-ethyl ester] | ≥ 100 | ≤ 2 |
| COCCOC(=O)N1CCc2c(sc(NC(=O)/C=C/c3cccnc3)c2C#N)C1 [Example 167, 3-Cyano-2-((E)-3-pyridin-3-yl-allanoylamino)-4,7-dihydro-5H-thieno[2,3-c]pyridine-6-carboxylic acid 2-methoxy-ethyl ester] | ≥ 100 | ≤ 2 |
| N#Cc1c(NC(=O)/C=C/c2cccnc2)sc2c1CCN(C(=O)OC1CCCCC1)C2 [Example 168, 3-Cyano-2-((E)-3-pyridin-3-yl-allanoylamino)-4,7-dihydro-5H-thieno[2,3-c]pyridine-6-carboxylic acid cyclohexyl ester] | ≥ 50 | ≤ 0.5 |
| N#Cc1c(NC(=O)/C=C/c2ccccc2)sc2c1CCN(C(=O)CCc1c[nH]c3ccccc13)C2 [Example 171, (E)-N-[3-Cyano-6-(3-1H-indol-3-yl-propanoyl)-4,5,6,7-tetrahydro-thieno[2,3-c]pyridin-2-yl]-3-phenyl-acrylamide] | ≥ 100 | ≤ 2 |
| N#Cc1c(NC(=O)/C=C/c2ccccc2)sc2c1CCN(C(=O)CCCc1c[nH]c3ccccc13)C2 [Example 172, (E)-N-[3-Cyano-6-(4-1H-indol-3-yl-butanoyl)-4,5,6,7-tetrahydro-thieno[2,3-c]pyridin-2-yl]-3-phenyl-acrylamide] | ≥ 100 | ≤ 2 |
| N#Cc1c(NC(=O)/C=C/c2ccccc2)sc2c1CCN(C(=O)Cc1ccccn1)C2 [Example 174, (E)-N-[3-Cyano-6-(2-pyridin-2-yl-ethanoyl)-4,5,6,7-tetrahydro-thieno[2,3-c]pyridin-2-yl]-3-phenyl-acrylamide] | ≥ 100 | ≤ 2 |
| COCCOCC(=O)N1CCc2c(sc(NC(=O)/C=C/c3ccccc3)c2C#N)C1 [Example 175, (E)-N-{3-Cyano-6-[2-(2-methoxy-ethoxy)-ethanoyl]-4,5,6,7-tetrahydro-thieno[2,3-c]pyridin-2-yl}-3-phenyl-acrylamide] | ≥ 100 | ≤ 2 |
| CCOC(=O)CC(=O)N1CCc2c(sc(NC(=O)/C=C/c3ccccc3)c2C#N)C1 [Example 176, 3-[3-Cyano-2-((E)-3-phenyl-allanoylamino)-4,7-dihydro-5H-thieno[2,3-c]pyridin-6-yl]-3-oxo-propionic acid ethyl ester] | ≥ 100 | ≤ 2 |
| COCCC(=O)N1CCc2c(sc(NC(=O)/C=C/c3ccccc3)c2C#N)C1 [Example 177, (E)-N-[3-Cyano-6-(3-methoxy-propanoyl)-4,5,6,7-tetrahydro-thieno[2,3-c]pyridin-2-yl]-3-phenyl-acrylamide] | ≥ 100 | ≤ 2 |
| CN(C)C(=O)CCC(=O)N1CCc2c(sc(NC(=O)/C=C/c3ccccc3)c2C#N)C1 [Example 178, 4-[3-Cyano-2-((E)-3-phenyl-allanoylamino)-4,7-dihydro-5H-thieno[2,3-c]pyridin-6-yl]-N,N-dimethyl-4-oxo-butyramide] | ≥ 100 | ≤ 2 |
| COCC(=O)N1CCc2c(sc(NC(=O)/C=C/c3ccccc3)c2C#N)C1 [Example 181, (E)-N-[3-Cyano-6-(2-methoxy-ethanoyl)-4,5,6,7-tetrahydro-thieno[2,3-c]pyridin-2-yl]-3-phenyl-acrylamide] | ≥ 100 | ≤ 2 |
| N#Cc1c(NC(=O)/C=C/c2ccccc2)sc2c1CCN(C(=O)Cc1c[nH]c3ccccc13)C2 [Example 182, (E)-N-[3-Cyano-6-(2-1H-indol-3-yl-ethanoyl)-4,5,6,7-tetrahydro-thieno[2,3-c]pyridin-2-yl]-3-phenyl-acrylamide] | ≥ 50 | ≤ 0.5 |
| N#Cc1c(NC(=O)/C=C/c2ccccc2)sc2c1CCN(C(=O)Cc1cccnc1)C2 [Example 183, (E)-N-[3-Cyano-6-(2-pyridin-3-yl-ethanoyl)-4,5,6,7-tetrahydro-thieno[2,3-c]pyridin-2-yl]-3-phenyl-acrylamide] | ≥ 100 | ≤ 2 |
